Assay results taken from US9822078B2, “Quinoline compounds” (Oxford University Innovation Limited, priority 2014, dated 2017).

Assays:
[1] = biological target: T1, Islet amyloid precursor polypeptide, IAPP (Homo sapiens, UniProt P10997); assay: In vitro assembly assay (thioflavin T fluorescence, with or without air-water interface), IAPP; type: biochemical; conditions: ratio of IC50 with air-water interface (+AWI) to IC50 without (−AWI), IAPP at 4 μM; for Ratio IAPP IC50 (μm) +AWI/−AWI elongation: elongation rate
T1 construct: Purified synthetic peptides corresponding to IAPP (Bachem, Weil am Rhein, Germany); purchased Bachem, Weil am Rhein, Germany; host or cells: synthetic peptide
T1 sequence (P10997 34-70 limits assumed): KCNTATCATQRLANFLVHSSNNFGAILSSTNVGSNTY
Method: (§1) The assay is based upon the altered fluorescent properties of the dye thioflavin T when it is intercalated into stacked beta-strand structures, which includes amyloid fibrils. The assay is carried out in multi-well plates in which the air-water interface (AWI) can be independently occluded at any time in the assay by the insertion in any well of a hydrophilic poly-methyl-methacrylate cylinder (Perspex). The cylinder consists of a rod of 6.6 mm in diameter and 6 mm in height with a hemispherical tip. This provides a close fit for the circular cross-section of the well, minimising residual air-water interface, and the hemispherical contour on the inserted end serves to ensure that no air bubbles are trapped on insertion.
(§2) The assay has a final volume of 100 μl and contains a buffered isotonic solution (Phosphate Buffered Saline pH 7.4), 32 μM Thioflavin T (ThT), an amyloidogenic precursor peptide (Islet amyloid precursor polypeptide, IAPP at 4 μM, or Abeta1-40 at 12 μM, final concentration) and added compounds at indicated concentrations (dissolved in dimethyl sulphoxide, DMSO) or DMSO alone. Purified synthetic peptides corresponding to IAPP (Bachem, Weil am Rhein, Germany) and Aβ1-40 (EZBiolab, Carmel, Ind., USA) were dissolved in DMSO, sonicated, and centrifuged for 1 hour at 15,000 g and 4° C. before use (to remove any pre-aggregated species).
(§3) The ThT fluorescence signal was measured at 1 minute intervals (excitation 450 nm, emission 480 nm) in a 96-well plate (black wall, clear bottom; Greiner Bio-One, Stonehouse, Gloucestershire, UK) without shaking at 37° C. on a Polarstar plate reader (BMG Labtech, Aylesbury, Buckinghamshire, UK).
(§4) Any compound or physical device (e.g., Perspex cylinder) used was introduced at the same time in test (containing IAPP) and control wells (buffer and ThT without IAPP). Control values (with or without compounds or physical device) were subtracted from test values. At least 3 independent assays, with every assay done in duplicate wells, were performed and analyzed with the 2-sample t test.
(§5) A more detailed description of the IAPP and Aβ thioflavin/cylinder assay is given in Jean et al (2012) Biophysical Journal 102 1154-11.
(§6) The kinetics parameters were calculated from the ThT data as follows; the elongation rate was calculated from the slope at the inflection point of the sigmoidal curve; the plateau height was calculated by averaging the highest curve values (minimum of five values) attained at the end of the experiment; and the lag phase was calculated from the intercept on the time axis of the line formed tangent to the inflection point. At least three independent assays were performed, with every assay performed in duplicate wells. Statistical analysis was performed with the two-sample t-test. Details of the method of calculation of lag phase, elongation rate and plateau height are described in Trigg et al (2013) Biochemical Journal 456 67-80.

Abeta1-40 = biological target: T2, Abeta1-40 (Homo sapiens, UniProt P05067); assay: In vitro assembly assay (thioflavin T fluorescence), screen against Amyloid-beta (Aβ) peptides; type: biochemical; conditions: Abeta1-40 at 12 μM
T2 construct: Abeta1-40 at 12 μM, final concentration; purchased EZBiolab, Carmel, Ind., USA; host or cells: synthetic peptide
T2 sequence (P05067 672-711 limits assumed): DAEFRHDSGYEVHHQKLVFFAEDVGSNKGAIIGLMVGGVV
Method: as §1, §2, §3, §4, §5, §6

C. elegans = assay: in vivo C. elegans model

Ratio IAPP IC50 (μm) +AWI/−AWI elongation [1]	Ratio IAPP IC50 (μm) +AWI/−AWI Lag phase [1]	Active against Aβ (Abeta1-40)	SMILES	activity in an in vivo C. elegans model (C. elegans)
4	8	–	Cc1cc(C)c2ccc(/C=C/c3ccccc3N)nc2c1O [Compound 131]	–
3	32	✓ (rate)	Cc1cc(C)c2ccc(/C=C/c3ccccc3O)nc2c1O [Compound 214]	showed activity
16	32	–	Cc1cc(C)c2ccc(/C=C/c3ccc(O)c(O)c3)nc2c1O [Compound 221]	–
3	11	–	Cc1cc(C)c2ccc(/C=C/c3ccccc3[N+](=O)[O-])nc2c1O [Compound 222]	–
4	3	–	Cc1cc(C)c2ccc(/C=C/c3ccccc3)nc2c1O [Compound 225]	–
3	1	–	Cc1cc(C)c2ccc(/C=C/c3ccc(Br)o3)nc2c1O [Compound 226]	–
31	32	✓ (rate)	Cc1cc(C)c2ccc(/C=C/c3cccc(O)c3)nc2c1O [Compound 227]	–
32	32	✓ (rate)	Cc1cc(C)c2ccc(/C=C/c3ccccc3C#N)nc2c1O [Compound 229]	–
21	21	–	Cc1cc(C)c2ccc(/C=C/c3cccc([N+](=O)[O-])c3)nc2c1O [Compound 234]	–
11	8	✓	Cc1cc(C)c2ccc(/C=C/c3cc(C(=O)O)ccc3O)nc2c1O [Compound 236]	showed activity
4	32	–	COc1cc(/C=C/c2ccc3c(C)cc(C)c(O)c3n2)ccc1O [Compound 238]	–
32	11	–	Cc1cc(C)c2ccc(/C=C/c3ccc(OC(F)(F)F)cc3)nc2c1O [Compound 239]	–
11	3	No	Cc1cc(C)c2ccc(/C=C/c3ccc4c(c3)OCO4)nc2c1O [Compound 241]	showed activity
32	32	✓	Cc1cc(C)c2ccc(/C=C/C3CCCCC3)nc2c1O [Compound 245]	–
12	32	✓	Cc1cc(C)c2ccc(/C=C/c3cccnc3)nc2c1O [Compound 249]	showed activity
21	21	✓	Cc1cc(C)c2ccc(/C=C/c3cccc(C#N)c3)nc2c1O [Compound 251]	showed activity
3	1	–	Cc1cc(C)c2ccc(/C=C/c3ccc(Br)cc3)nc2c1O [Compound 252]	–
1	4	–	Cc1cc(C)c2ccc(/C=C/c3cccnc3Cl)nc2c1O [Compound 311]	–
1	2	–	COc1ccc(/C=C/c2ccc3c(C)cc(C)c(O)c3n2)cn1 [Compound 312]	–
>1	3	–	Cc1cc(C)c2ccc(/C=C/c3cccnc3N)nc2c1O [Compound 321]	–
1	4	–	Cc1ccc(/C=C/c2ccc3c(C)cc(C)c(O)c3n2)cn1 [Compound 322]	–
2.5	11	–	Cc1cc(C)c2ccc(/C=C/c3ccc(N4CCOCC4)nc3)nc2c1O [Compound 323]	–
4	21	–	Cc1cc(C)c2ccc(/C=C/c3ccc(N4CCNCC4)nc3)nc2c1O [Compound 324]	–
5	1	–	Cc1cc(C)c2ccc(/C=C/c3cccnc3N3CCNCC3)nc2c1O [Compound 325]	–
1	1	–	Cc1cc(C)c2ccc(/C=C/c3cccnc3C)nc2c1O [Compound 326]	–
